# According to US20160279076A1, “METHODS FOR IMPROVEMENT OF VISUAL FUNCTION AND COMPOSITIONS USED THEREIN” (priority 2015, published 2016):
# System: ARPE-19 cells
# Test: Gene expression analysis in ARPE-19 cells after lutein pretreatment and UV exposure
# Assay type: cell-based, human
# Details: for Down-regulated genes expression / Up-regulated genes expression: 10 μM lutein 24 hour pretreatment
# Description: Retinal pigment epithelial (RPE) cells play a key protective role by shielding retina from damaging UV rays and are used as a model to study the effect of macular carotenoids. In this study, a human RPE cell line (ARPE-19 cells were acquired from American Type Culture Collection (ATCC)) was either treated with placebo or treated with macular carotenoids alone or in combination for 24 hours prior to UV exposure. Cells were maintained for another 18 hours, then harvested for gene expressions. In another study, acetylcholinesterase and catalase activities in the presence of macular carotenoids were tested.
# According to Study 1, Cell line ARPE-19 was subjected to 24 hour pretreatment with 10 μM lutein, followed by exposure to UV radiation of 1 J/m^2 for 7 seconds.
# According to Study 2, Cell line ARPE-19 was subjected to 24 hour pretreatment with 10 μM lutein, followed by exposure to UV radiation of 300 J/m^2 for 10 minutes.
# Gene expression analysis was carried out in response to UV exposure and macular carotenoid administration.
smiles,measurement,setting,value
"CC1=C[C@H](O)CC(C)(C)[C@H]1/C=C/C(C)=C/C=C/C(C)=C/C=C/C=C(C)/C=C/C=C(C)/C=C/C1=C(C)C[C@@H](O)CC1(C)C [Lutein, lutein]",Down-regulated genes expression,with UV exposure,inhibits inflammation
same,Up-regulated genes expression,with UV exposure,inhibits oncogenesis and growth factor tumor suppressors
same,Down-regulated genes expression,without UV exposure,inhibits DNA damage and inflammation
same,Up-regulated genes expression,without UV exposure,inhibits oncogenesis and inflammation
same,"Gene expression analysis, overall role for vision health","ARPE-19 cells, UV irradiation",plays a protective role for vision health
